The source made the active and inactive calls. The rule behind the calls is not given here.
Molecular target: Caspase-6 (Homo sapiens) (UniProt P55212)
Assay: human caspase-6 inhibitors, dose response, biochemical, VEID-R110 fluorescence, cherry-pick (AID 720632)
Conditions: caspase-6, VEID-R110 fluorogenic substrate

Chain of Caspase-6 (Homo sapiens) (P55212 24-179 limits assumed): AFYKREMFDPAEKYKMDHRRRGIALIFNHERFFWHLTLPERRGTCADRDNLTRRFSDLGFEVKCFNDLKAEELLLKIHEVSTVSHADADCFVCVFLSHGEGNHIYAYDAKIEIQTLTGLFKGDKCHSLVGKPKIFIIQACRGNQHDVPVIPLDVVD
Chain of Caspase-6 (Homo sapiens) (P55212 194-293 limits assumed): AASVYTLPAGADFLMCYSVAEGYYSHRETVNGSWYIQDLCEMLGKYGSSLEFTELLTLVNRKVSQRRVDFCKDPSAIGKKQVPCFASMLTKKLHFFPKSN

Compound	activity change, negative = inhibition (at 26 µM (top of the series))	activity change, negative = inhibition (at 23.5 µM (top of the series))
CC1(C)COC(/C=C/c2cccc([N+](=O)[O-])c2)=N1	inactive	
COc1ccccc1N(CC(=O)NCCSCc1ccccc1Cl)S(C)(=O)=O	inactive	
Cc1ccc(NC(=O)CCC(=O)NNC(=O)COc2ccccc2)c(C)c1	inactive	
CCCC(=O)n1nc(-c2cccnc2)nc1NCc1ccc(OC)cc1	inactive	
O=C(CCCn1c(=S)[nH]c2cc3c(cc2c1=O)OCO3)N1CCN(C2CCCCC2)CC1	inactive	
CCCN1C[C@H](C)[C@@H](OC)CN(C)C(=O)c2ccc(NC(=O)CC)cc2OC[C@H]1C	inactive	
O=C(O)c1cccc(Nc2ccnc(Nc3cccc(C(=O)O)c3)n2)c1	inactive	
O=C(Nc1nc2ccc([N+](=O)[O-])cc2s1)c1ccncc1	inactive	
COc1cc(OC)c(-c2nn3c(C4CCCCC4)nnc3s2)cc1OC	inactive	
CN1CCN(NC(=O)NC2CCCCC2)CC1	inactive	
Cc1ccc2oc(C(=O)N(Cc3ccc(N(C)C)cc3)C3CCS(=O)(=O)C3)c(C)c2c1 (stereo unspecified)	inactive	
COc1ccc(NC(=O)Nc2ccccc2F)c([N+](=O)[O-])c1	inactive	
O=C(COC(=O)c1ccccc1OCc1ccccc1Cl)NC1CCS(=O)(=O)C1 (stereo unspecified)	inactive	
O=C(NC(=C(Cl)Cl)S(=O)(=O)c1ccc(Cl)cc1)c1ccccc1	inactive	
CO[C@@H]1CN(C)C(=O)c2ccc(NC(=O)C3CC3)cc2OC[C@@H](C)N(C)C[C@H]1C	inactive	
CO[C@H]1CN(C)C(=O)c2ccc(NC(=O)c3ccccc3)cc2OC[C@@H](C)N(C(=O)C2CC2)C[C@@H]1C	inactive	
Cn1c(CSCCOc2ccccc2)n[nH]c1=S	inactive	
CC1CCCC(C)N1C(=O)C1CCCCC1 (stereo unspecified)	inactive	
C/C(CC(=O)Nc1cc(C)ccn1)=N\NC(=O)c1cccc(C)c1O	inactive	
CCc1ccccc1OCC(=O)OCC(=O)N1CC(=O)Nc2ccccc21	inactive	
O=C(Nc1ccc2c(c1)OCCO2)C1CCCC1	inactive	
COc1cccc(NS(=O)(=O)c2ccc3c(c2)NC(=O)CC(=O)N3)c1	inactive	
O=C(c1cccc(S(=O)(=O)N2CCCCCC2)c1)N1CCN(c2ccccc2F)CC1	inactive	
CC1CCN(C(=O)Cn2cc(C(F)(F)F)ccc2=O)c2ccccc2S1 (stereo unspecified)	inactive	

Compound	activity change, negative = inhibition (at 26 µM (top of the series))	activity change, negative = inhibition (at 23.5 µM (top of the series))
C[C@H](CO)N1C[C@H](C)[C@@H](CN(C)C(=O)c2ccncc2)OCc2cnnn2CCCC1=O	inactive	
CNC(=O)c1ccccc1NC(=O)C1CC(=O)N(C(C)C)C1 (stereo unspecified)	inactive	
COc1ccc(N2CCN(C(=O)CCCn3c(=S)[nH]c4cc5c(cc4c3=O)OCO5)CC2)cc1	inactive	
COc1cc(Br)cc(CN2CCN(C/C=C/c3ccccc3)CC2)c1O	inactive	
O=C(O)C1Sc2[nH]c(=O)sc2C2c3ccc(O)cc3OC(=O)C12 (stereo unspecified)	inactive	
CSc1ccc(CN2CCC2(C)C(=O)Nc2cccc(NS(C)(=O)=O)c2)cc1 (stereo unspecified)	inactive	
CCCN1C[C@@H](C)[C@@H](OC)CN(C)C(=O)c2ccc(NC(=O)c3ccccc3)cc2OC[C@@H]1C	inactive	
COc1ccc(NS(=O)(=O)c2cc(NC(=O)[C@H](C)NC(N)=O)ccc2N2CCCC2)cc1	inactive	
O=C(CCCCCn1c(=S)[nH]c2cc3c(cc2c1=O)OCO3)N1CCN(Cc2ccccc2)CC1	inactive	
CC1(C)C(=O)Nc2ccccc2N1C(=O)COC(=O)c1ccc([N+](=O)[O-])o1	inactive	
CCC(=O)N1C[C@H](C)[C@H](OC)CN(C)C(=O)c2ccc(NC(=O)c3ccccc3)cc2OC[C@H]1C	inactive	
O=[N+]([O-])c1ccc(NCCN2CCOCC2)c([N+](=O)[O-])c1	inactive	
COc1cc2sc(C)nc2c2ccccc12	inactive	
CCC1(C)Cc2c(C#N)c(N)n(-c3ccccc3)c(=S)c2CO1 (stereo unspecified)	inactive	
CCCN1C[C@H](C)[C@H](OC)CN(C)C(=O)c2ccc(NC(=O)c3ccccc3)cc2OC[C@@H]1C	inactive	
CCC(=O)Nc1ccc2c(c1)OC[C@@H](C)N(C(=O)CC)C[C@@H](C)[C@H](OC)CN(C)C2=O		inactive
CC1CCCCC1NS(=O)(=O)c1ccc(S(=O)(=O)N2CCN(CCC#N)CC2)cc1 (stereo unspecified)	inactive	
CCCNC(=O)[C@@H]1[C@@H](CO)[C@@H]2Cn3c(ccc(-c4ccccc4)c3=O)[C@@H]2N1CC1CC1	inactive	
CCc1noc(C)c1C(=O)Nc1ccc(S(=O)(=O)N2CCCC(C)C2)cc1 (stereo unspecified)	inactive	
COc1cc(N)c(Cl)cc1C(=O)NC1CCN(Cc2ccccc2)CC1	inactive	
O=Cc1cscc1[B-](F)(F)F	inactive	
COC(=O)C[C@H]1CC[C@@H]2[C@H](COc3ccc(NC(=O)c4cnccn4)cc3C(=O)N2C)O1	inactive	
Cc1nc2ccc(NC(=O)CCC3CCCC3)cc2s1	inactive	
O=C(C[C@@H]1C=C[C@H](NC(=O)C2CC2)[C@H](CO)O1)Nc1nccs1	inactive	

Compound	activity change, negative = inhibition (at 26 µM (top of the series))	activity change, negative = inhibition (at 23.5 µM (top of the series))
COc1ccc(C=Nc2cccc3ncccc23)cc1	inactive	
CN1CCN(CC(=O)Nc2ccc(Cl)cc2Cl)CC1	inactive	
CCOC(=O)N1CCN(C(=O)Cc2ccccc2[N+](=O)[O-])CC1	inactive	
CO[C@@H]1CN(C)C(=O)c2ccc(NC(C)=O)cc2OC[C@@H](C)NC[C@@H]1C	inactive	
O=C(NC1CCCCC1)C(c1ccnc2ccccc12)N1CCc2ccccc2C1 (stereo unspecified)	inactive	
COP(=O)(OC)c1ccc(NCc2cc(O)ccc2O)cc1	inactive	
CCOc1cc2c(cc1OC)C(c1cccc([N+](=O)[O-])c1)NCC2 (stereo unspecified)	inactive	
Cc1cccc(C)c1OCc1nc2ccccc2[nH]1	inactive	
C=CCNC(=O)COc1ccccc1C#N	inactive	
CCOc1ccc(N2CC(C(=O)NCC(=O)Nc3ccc(F)c(F)c3F)CC2=O)cc1 (stereo unspecified)	inactive	
COc1cccc(C(=O)OC(C)C(=O)NCC2CCCCC2)c1 (stereo unspecified)	inactive	
Nc1ccc(C(=O)N/N=C/c2cn(Cc3ccc(F)cc3)c3ccccc23)cc1	inactive	
COc1ccc(C(=O)Nc2cc(C(=O)O)cc(C(=O)O)c2)cc1Cl	inactive	
CCN=c1sc(C(=O)Nc2ccccc2)c(C)n1CC	inactive	
Cn1c(NN=O)nc2ccccc21	inactive	
Cc1ccc(NC(=O)Nc2nnc(-c3ccccc3)o2)cc1	inactive	
COCC(=O)Nc1ccc2c(c1)OC[C@@H](C)N(CC1CC1)C[C@@H](C)[C@@H](OC)CN(C)C2=O	inactive	
COc1ccc(C(=O)N2CCN(CCCc3ccccc3)CC2)cc1OC	inactive	
Cc1onc(NC(=O)NC(=O)c2c(F)cccc2Cl)c1Br	inactive	
O=C(ONC(=O)C1CCCCC1C(=O)NOC(=O)c1ccccc1)c1ccccc1 (stereo unspecified)	inactive	
Cc1cc2c(NC(=O)Nc3ccc(F)cc3)cccc2nn1	inactive	
Cc1ccccc1C(=O)O/N=C(\N)c1ccccc1	inactive	
Cc1nc2ccccc2c(=O)n1-c1ccc(NS(=O)(=O)c2ccc(F)cc2F)cc1	inactive	

From PubChem BioAssay AID720632 (Broad Institute, 2013)
